Test results as given in article PMC10281575, “PfCRT mutations conferring piperaquine resistance in falciparum malaria shape the kinetics of quinoline drug binding and transport” (PLOS Pathogens, 2023).
“And” between values parts separate entries of the source, which are not always exact repeats. Equal values may be shown once.

Target: T1, PfCRT^Dd2_F145I (Plasmodium falciparum, UniProt Q8IBZ9, A220S/F145I/I356T/K76T/M74I/N326S/N75E/Q271E/R371I)
T1 construct: expressed in transfected cells; host or cells: Xenopus laevis oocytes injected with in vitro transcribed RNA (pSP64T)
T1 sequence (Q8IBZ9 1-424 M74I/N75E/K76T/F145I/A220S/Q271E/N326S/I356T/R371I): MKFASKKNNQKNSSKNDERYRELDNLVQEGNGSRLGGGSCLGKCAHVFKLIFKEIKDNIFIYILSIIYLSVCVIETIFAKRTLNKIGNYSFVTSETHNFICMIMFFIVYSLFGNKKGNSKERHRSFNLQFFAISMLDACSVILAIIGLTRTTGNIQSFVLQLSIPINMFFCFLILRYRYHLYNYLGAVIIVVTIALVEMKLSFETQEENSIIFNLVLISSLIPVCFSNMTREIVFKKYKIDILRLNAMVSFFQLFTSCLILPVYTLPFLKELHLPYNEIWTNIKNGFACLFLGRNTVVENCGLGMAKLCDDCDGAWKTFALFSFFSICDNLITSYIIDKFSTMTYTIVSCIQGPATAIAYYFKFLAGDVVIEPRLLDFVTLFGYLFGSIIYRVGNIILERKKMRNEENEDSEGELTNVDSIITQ
Test: Competition plot (Vtotal versus proportion of PPQ in CQ/PPQ mixtures), PfCRT^Dd2_F145I
Format: cell-based
Details: for competition plot result (binding sites): CQ/PPQ mixtures, Vtotal dependent on P
Protocol: To test this hypothesis, we performed competition plot experiments, in which the enzyme or carrier is exposed to substrate mixtures that give the same transport rate for different substrates. The experiment is performed with substrate A labeled and then repeated with substrate B labeled. […] Similar results were found for PfCRT^Dd2_F145I.
Fig 3 Competition plot of the interaction of PfCRT^Dd2 (A) and PfCRT^Dd2_F145I (B) with CQ and PPQ. The competition plot tests whether two substrates bind to the same site or distinct sites on an enzyme or transporter. A competitive reaction would yield data points that lie on a horizontal line, whereas allosteric interactions would reveal a curved relationship. PfCRT-mediated drug uptake was measured from mixtures of radiolabeled CQ and PPQ that combined yielded an uptake close to saturation (Vtotal). Vtotal was subsequently analyzed as a function of the proportion of PPQ in the mixture (P). For more details see Materials and Methods. The mean ± SEM of at least 3 independent biological replicates are shown.
The competition plot was performed as described elsewhere. Briefly, a concentration of CQ and a concentration of PPQ were selected (using the parameters from Table 1), such that (i) the rate of PPQ transport was equivalent to the rate of CQ transport, and (ii) the transport rate for CQ (the less efficiently transported substrate) approached its Vmax. The resulting concentrations for PfCRT^Dd2 were [CQ]^max = 400 μM and [PPQ]^max = 23.1 μM. At these concentrations of CQ and PPQ, the expected uptake is 19.8 pmol h^-1 oocyte^-1. The resulting concentrations for PfCRT^Dd2_F145I were [CQ]^max = 400 μM and [PPQ]^max = 18.2 μM. At these concentrations of CQ and PPQ, the expected uptake is 18.2 pmol h^-1 oocyte^-1. A series of reaction buffers containing CQ and PPQ at concentrations [CQ] = (1—P) x [CQ]^max and [PPQ] = P x [PPQ]^max were assembled, where P is the proportion of PPQ in the mixture. […] These corresponded to values of P equal to 0, 0.25, 0.5, 0.75, 0.9 and 1. A plot of Vtotal as a function of P yielded the competition plots. If both substrates bind to the same site, then a constant Vtotal is expected across all P values (e.g. data lies on a horizontal line). If the substrates bind to different sites, and they inhibit each other’s transport, it is expected that the curve is concave with either a minimum or a maximum.

[1] = CQ/PPQ mixture, P = 0.25, single replicates
[2] = CQ/PPQ mixture, P = 0.5, single replicates
[3] = CQ/PPQ mixture, P = 0.75, single replicates
[4] = CQ/PPQ mixture, P = 0.9, single replicates

Compound: Clc1ccc2c(N3CCN(CCCN4CCN(c5ccnc6cc(Cl)ccc56)CC4)CC3)ccnc2c1 [PPQ, piperaquine]
- PfCRTDd2_F145I-mediated PPQ transport P = 0.25 [1]: 3.27 pmol oocyte-1 h-1 and 3.77 pmol oocyte-1 h-1 and 3.82 pmol oocyte-1 h-1
- PfCRTDd2_F145I-mediated PPQ transport P = 0.5 [2]: 7.53 pmol oocyte-1 h-1 and 7.99 pmol oocyte-1 h-1 and 8.13 pmol oocyte-1 h-1
- PfCRTDd2_F145I-mediated PPQ transport P = 0.75 [3]: 12.62 pmol oocyte-1 h-1 and 13.41 pmol oocyte-1 h-1 and 10.66 pmol oocyte-1 h-1
- PfCRTDd2_F145I-mediated PPQ transport P = 0.9 [4]: 15.10 pmol oocyte-1 h-1 and 16.36 pmol oocyte-1 h-1 and 16.00 pmol oocyte-1 h-1
- PfCRTDd2_F145I-mediated PPQ transport P = 1 (CQ/PPQ mixture, P = 1, single replicates): 16.57 pmol oocyte-1 h-1 and 18.61 pmol oocyte-1 h-1 and 20.05 pmol oocyte-1 h-1
- competition plot result (binding sites): occupy different domains

Compound: CCN(CC)CCCC(C)Nc1ccnc2cc(Cl)ccc12 (stereo not drawn) [CQ, chloroquine]
- PfCRTDd2_F145I-mediated CQ transport P = 0 (CQ/PPQ mixture, P = 0, single replicates): 14.23 pmol oocyte-1 h-1 and 18.19 pmol oocyte-1 h-1 and 22.31 pmol oocyte-1 h-1
- PfCRTDd2_F145I-mediated CQ transport P = 0.25 [1]: 16.38 pmol oocyte-1 h-1 and 14.89 pmol oocyte-1 h-1 and 14.95 pmol oocyte-1 h-1
- PfCRTDd2_F145I-mediated CQ transport P = 0.5 [2]: 11.20 pmol oocyte-1 h-1 and 13.42 pmol oocyte-1 h-1 and 11.66 pmol oocyte-1 h-1
- PfCRTDd2_F145I-mediated CQ transport P = 0.75 [3]: 8.54 pmol oocyte-1 h-1 and 5.74 pmol oocyte-1 h-1 and 7.98 pmol oocyte-1 h-1
- PfCRTDd2_F145I-mediated CQ transport P = 0.9 [4]: 3.23 pmol oocyte-1 h-1 and 2.52 pmol oocyte-1 h-1
- competition plot result (binding sites): occupy different domains
